3 compounds from patent publication US20230124720A1, “APPLICATION OF ACRIDINEDIONE COMPOUND IN PREPARATION OF ANTI-DIABETIC DRUGS” (THE FOURTH MILITARY MEDICAL UNIVERSITY, priority 2020, published 2023) can be followed below.

The subject of test [1] is STZ-induced T2DM rats. As to the kind of experiment: Postprandial blood glucose in STZ-induced T2DM rats. It is filed as in vivo, rat. The following applies: end of administration. The protocol: (§1) 150 male SD rats, housed in cages in a clean constant temperature (23±2° C.) and humidity (55±10%) animal house, were manually adjusted on a daily 12 h/12 h diurnal light cycle with free access to water. After 3 days of adaptive feeding, 150 rats were randomly divided into normal and model groups. The normal (Con, n=15) group of rats remained on raw chow and the model group (n=135) of rats were given high fat high sugar chow. All rats were fed twice daily and the amount of feed was adjusted as needed to ensure adequate feed. After 8 weeks of group feeding, the model group rats were given an intraperitoneal injection of 25 mg/kg STZ solution with a 12 h fast prior to injection. After injection, feeding was continued as in the original method, blood was taken from the tail vein at 72 h for blood glucose measurement, and rats with fasting blood glucose levels ≥11.1 mmol/L on different days were screened for successful artificial induction of T2DM and administered in groups for the next experiment. 135 rats with successful modeling were randomly divided into 9 groups: […] (2) 0.01 mg/kg ADD-16 administration group (ADD I, n=15): daily administration of 0.01 mg/kg ADD-16 solution by gavage; (3) 0.1 mg/kg ADD-16 administration group (ADD II, n=15): daily administration of a 0.1 mg/kg ADD-16 solution by gavage; (4) 1 mg/kg ADD-16 administration group (ADD III, n=15): daily administration of a 1 mg/kg ADD-16 solution by gavage; (5) 3 mg/kg ADD-16 administration group (ADD IV, n=15): daily administration of a 3 mg/kg ADD-16 solution by gavage; (6) 10 mg/kg ADD-16 administration group (ADD V, n=15): daily administration of a 10 mg/kg ADD-16 solution by gavage; (7) 50 mg/kg ADD-16 administration group (ADD VI, n=15): daily administration of a 50 mg/kg ADD-16 solution by gavage; […] (9) Sitagliptin control group (ST, n=15): daily administration of a 6 mg/kg sitagliptin solution by gavage. […] Relevant indicators of lipid metabolism were measured after the end of the study.

In test [2] the test system is STZ-induced T2DM rats. The test is described as follows: Insulin tolerance test (ITT) in T2DM rats. It is filed as in vivo, rat. The protocol: as §1, with “study. […] After the 120 min blood glucose value determination was completed, the diet was resumed. In the test, the condition of the rats was observed, and when abnormalities occurred, the experiment was stopped in time and a glucose solution was given by gavage to prevent death due to hypoglycemia.” for “study.”

Test [3] relates to MIN6 cells. The test is described as follows: Insulin secretion in PA-induced insulin-resistant MIN6 cells. It is filed as cell-based, mouse. The following applies: PA-induced IR model, 10 μmol/L, 24 h, 2.8 and 16.7 mmol/L glucose; P<0.001. The protocol: MIN6 cells were seeded in 24-well plates and cultured as described in step 2.1 to a cell confluency of more than 80% and administrated in the following groups, with 12 replicates per group: (1) normal control group (Con): cultured with blank 1640 medium; (2) insulin resistance model panel (IR): treated with 0.125 mmol/L PA for 24 h to induce establishment of an insulin resistance model; (3) ADD-16 administration group (ADD): 10 μmol/L ADD-16 intervention was administered for 24 h after successful establishment of the insulin resistance model; (4) TAK875 control group (TAK875): 10 μmol/L TAK875 was administered as a positive control drug intervention for 24 h after successful establishment of the insulin resistance model; (5) metformin control group (MT): 10 mmol/L metformin was administered as a positive control drug intervention for 24 h after successful establishment of the insulin resistance model; (6) sitagliptin control group (ST): 10 μmol/L sitagliptin was administered as a positive control drug intervention for 24 h after successful establishment of the insulin resistance model. After the group administration, the medium was aspirated and washed 2 times with a KRB buffer without sugar, followed by the addition of the KRB buffer without sugar. […] After incubation at 37° C. for 1 h, all the medium in the wells was aspirated and centrifuged at 2000 rmp/min for 20 min, and the supernatant was collected and stored at −20° C. The insulin content was measured for each group.

Test [4] has as its system MIN6 cells. As to the kind of experiment: Western Blot / immunofluorescence of insulin signaling related molecules in insulin-resistant MIN6 cells. It is filed as cell-based, mouse. The following applies: insulin-resistant MIN6 cells, 24 h, P<0.001. The protocol:
MIN6 cells were seeded in culture dishes at the appropriate density and cultured as described in step 2.1 to a confluency of about 80%. Cells were divided into the following 5 groups: (1) normal control group (Con): cultured with blank 1640 medium; (2) insulin resistance model panel (IR): treatment with 0.125 mmol/L PA for 24 h to induce establishment of a MIN6 cell insulin resistance model; (3) 3 μmol/L ADD-16 administration group (ADD I): 3 μmol/L ADD-16 intervention was given for 24 h after successful establishment of the insulin resistance model; (4) 10 μmol/L ADD-16 administration group (ADD II): 10 μmol/L ADD-16 intervention was given for 24 h after successful establishment of the insulin resistance model; (5) TAK875 control group (TAK875): 10 μmol/L TAK875 was administered as a positive control drug intervention for 24 h after successful establishment of the insulin resistance model. At the end of the group administration, groups of cells were harvested for WB or IF experiments.

The mark [5] stands for this setting: ST group, 6 mg/kg daily by gavage.
Where [6] appears, read: MT group, 250 mg/kg daily by gavage.

As to `N[C@@H](CC(=O)N1CCn2c(nnc2C(F)(F)F)C1)Cc1cc(F)c(F)cc1F` [sitagliptin, reference compound], in test [1] (setting [5]), the “reduction in blood glucose compared to the TD group” value is reported as 61.5%. In test [2] (setting [5]), the “decrease of ITT AUC compared to the TD group” value stood at 51.4%. Moreover, in test [3], the “insulin secretion level in insulin-resistant MIN6 cells (in words)” value is reported as “even higher than in Con group”.

As to `Cc1cc(OCCCS(C)(=O)=O)cc(C)c1-c1cccc(COc2ccc3c(c2)OC[C@H]3CC(=O)O)c1` [TAK875, reference compound], the “insulin secretion level in insulin-resistant MIN6 cells (in words)” value in test [3] was “even higher than in Con group”. For the same compound, in test [4], the “expression of insulin signaling-related molecules, Western Blot (in words)” value was “upregulate GPR40, PGC-1α, P-P38, P-EP300, PPARγ, P-AKT, PI3K, IRS1 and GLUT4 expression”.

Regarding `CN(C)C(=N)N=C(N)N` [metformin, reference compound], the “reduction in blood glucose compared to the TD group” value in test [1] (setting [6]) is reported as 45.0%. Besides, the “decrease of ITT AUC compared to the TD group” value in test [2] (setting [6]) is reported as 39.9%.
